The values below are quoted from earlier work in patent US8968755B2, “Topical base and active agent-containing compositions, and methods for improving and treating skin” (priority 2010, dated 2015).

`CCCCCCCCCCCCCCCCCCO` [Stearyl alcohol, 1-octadecanol]: the solubility in water result was “insoluble in water”.
